In patent US20240293416A1, “TREATMENT OF LIVER DISORDERS WITH A THR-ß AGONIST” (Terns Pharmaceuticals, Inc., priority 2021, published 2024):
Values joined by “and” are separate entries in the source; they are usually repeats but may differ in a detail not shown here. Equal entries are not always repeated. Values belong to the molecule of their own block, whether it stands above or below them.

How the values were obtained:
[1] = system: biopsy-confirmed DIO-NASH mice; test: DIO-GAN NASH mice: liver histology (NAS, fibrosis, IHC); format: in vivo, C57BL/6JRj mice
Source text: (§1) C57BL/6JRj male mice (n=138) were fed the Gubra Amylin NASH (GAN) diet (40% fat, 22% fructose, 2% cholesterol [D09100310, Research Diets]) or lean chow diet for 35 weeks before treatment start. Prior to treatment all animals underwent liver biopsy for histological confirmation (steatosis score ≥2 and fibrosis stage ≥1) and stratification using the nonalcoholic fatty liver disease (NAFLD) activity scoring (NAS) and fibrosis staging system. The diet-induced obese mice on GAN diet (DIO-GAN) were randomized to 8 treatment groups (Table 16) based on percent-area of picrosirius red (PSR) staining. […] Vehicle-dosed lean chow-fed controls served as healthy controls (n=10). Mice were maintained on their respective diets (GAN or lean chow) for the duration of the study. Within-subject comparisons (pre-vs. post-treatment) were performed for liver biopsy histopathological scores. Terminal quantitative endpoints included plasma/liver biochemistry, liver histomorphometry, and liver transcriptomic analysis by RNAseq.
Formalin-fixed paraffin-embedded (FFPE) liver biopsies were prepared by placing liver samples into 10% neutral buffered formalin for ˜24 hours and then transferred to 70% ethanol prior to storage at 4 C. FFPE were placed in the Histokinette to infiltrate prior to embedding in blocks. Biopsy tissues were then cut at 3 μm using a microtome and sections were mounted on slides. Liver sections were stained with Hematoxylin and Eosin (H&E) to assess steatosis, inflammation, and ballooning, and PSR to assess fibrosis. Additionally, slides were processed to detect type I collagen (Col1a1), galectin-3 (Gal-3), and smooth muscle actin (α-SMA) protein expression by immunohistochemistry (IHC). For H&E staining, slides were incubated in Mayer's Hematoxylin (Dako), washed with tap water, stained in Eosin Y solution (Sigma-Aldrich), dehydrated, and coverslipped. For PSR, slides were incubated in Weigert's iron hematoxylin (Sigma-Aldrich), washed in tap water, stained in Picro-sirius red (Sigma-Aldrich), and washed twice in acidified water. Excess water was removed by shaking the slides and the slides were then dehydrated with ethanol, cleared in xylene, and cover-slipped. The NAS and fibrosis stage were scored as described previously (Kleiner et al. 2005). NAS represents the unweighted sum of steatosis, inflammation, and ballooning scores and ranges for 0-8 (Table 17); fibrosis stage ranges from 0 (no fibrosis) to 4 (cirrhosis). For detection of Col1a1, Gal-3 and α-SMA, IHC was performed by standard procedures. Briefly, after antigen retrieval and blocking of endogenous peroxidase activity, slides were incubated with primary antibody (Col1a1: Southern Biotech, Cat. 1310-01; Gal-3: Biolegend, Cat. 125402; α-SMA: Abcam Cat. Ab124964). Primary antibody was detected using a polymeric HRP-linker antibody conjugate. Primary antibody was visualized with DAB as chromogen. Finally, sections were counterstained in hematoxylin and cover-slipped.
The NAFLD Activity Score (NAS) was used to assess the histological effects of treatment. NAS is defined as the unweighted sum of steatosis, inflammation, and ballooning histological scores and can range from 0-8. NAS was determined for each animal before (baseline) and after 12-weeks of treatment at the end of study. NAS was well balanced across treatment groups with an NAS range of 5-6 at baseline in most mice (FIG. 39A). […] In addition, the magnitude of NAS improvement was greater in the combination treatment groups.

[2] = Pharmacokinetics of 50 mg capsules with or without SLS in beagle dogs; format: in vivo; conditions: 50 mg capsule with vs without 5 wt % SLS
[3] = Multiple ascending doses in healthy subjects with elevated LDL-c: safety; format: in vivo, human; conditions: 1, 3, 6 or 10 mg once daily for 14 days
Source text: Objectives: Assess the overall safety and tolerability of multiple ascending doses of Compound 1 in healthy subjects with elevated LDL-c.
Primary Endpoints: Treatment-emergent adverse events (TEAEs), vital signs, clinical laboratory parameters, and electrocardiogram (ECG) monitoring.

[4] = system: biopsy-confirmed DIO-NASH mice; test: DIO-GAN NASH mice: liver enzymes, plasma and liver lipids, CK18 M30; format: in vivo, C57BL/6JRj mice; conditions: for plasma triglycerides (TG): end of study
Source text: as §1
Terminal blood was harvested by cardiac puncture from mice anesthetized with isoflurane (2-3%), mixed with anticoagulant, and placed at 4 C prior to centrifugation at 3000×g for 10 minutes. Plasma supernatants were transferred to new tubes and immediately frozen on dry ice and stored at −80 C. Alanine transaminase (ALT), Aspartate transaminase (AST), Alkaline phosphatase (ALP), Triglycerides (TGs), Total Cholesterol (TC), High-density lipoprotein (HDL-c), and Low-density lipoprotein (LDL-c) were measured using commercial kits (Roche Diagnostics) on the Cobas c 501 autoanalyzer according to manufacturer's instructions. Cytokeratin 18 M30 (CK18 M30) was measured from plasma using a commercial ELISA kit (Cusabio) according to the manufacturer's instructions.
Liver samples were homogenized and TGs and TC was extracted in 5% NP-40 by heating (2×) at 90 C. Samples were centrifuged and the TG and TC content was measured in the supernatant using commercial kits (Roche Diagnostics) on the Cobas c 501 autoanalyzer, according to the manufacturer's instructions.

[5] = pH and solubilizer effect on solubility; format: physicochemical
Protocol: Solubility of Compound 1 (potassium salt) was evaluated at various pH levels.

[6] = system: biopsy-confirmed DIO-NASH mice; test: DIO-GAN NASH mice: liver transcriptomics by RNAseq; format: in vivo, C57BL/6JRj mice; conditions: RNAseq at termination
Source text: as §1
Tissue was collected and snap-frozen in liquid nitrogen and stored at −80 C until processing. RNA was isolated using a NucleoSpin kit ([…]-NAGEL). […]

[7] = PO QD 12 weeks, Compound 1-low, 0.3 mg/kg
[8] = PO QD 12 weeks, Compound 1-med, 2 mg/kg
[9] = PO QD 12 weeks, Compound 1 Low, 0.3 mg/kg
[10] = PO QD 12 weeks, Compound 1 Med, 2 mg/kg
[11] = PO QD 12 weeks, Compound 2 10 mg/kg alone or plus Compound 1 0.3/2/10 mg/kg (Combo Low/Med/High)
[12] = PO QD 12 weeks, Compound 2 10 mg/kg alone or plus Compound 1 0.3/2/10 mg/kg (Combo-low/med/high)

increase of exposure (Cmax, AUC) by formulation with 5 wt % SLS [2]: more than 70%
aqueous solubility ([5]; even in the salt form): very low aqueous solubility
Solubility ([5]; pH 10.0 buffer, 24 h, with 2 wt % SLS, 25° C., potassium salt): 308.2 µg/mL
SMILES: N#Cc1nn(-c2cc(Cl)c(Oc3n[nH]c(=O)c4ccccc34)c(Cl)c2)c(=O)[nH]c1=O [Compound 1, 2-(3,5-dichloro-4-((4-oxo-3,4-dihydrophthalazin-1-yl)oxy)phenyl)-3,5-dioxo-2,3,4,5-tetrahydro-1,2,4-triazine-6-nitrile]
NAFLD Activity Score (NAS): No change, % of mice [1, 7]: 56.25%
NAS: Improving 1-pt, % of mice [1, 7]: 31.25%
NAS: Improving Total (≥1-pt), % of mice [1, 7]: 31% and 31.25%
NAS: Improving ≥2-pt, % of mice [1, 7]: 0%
NAS: Worsening ≥1-pt, % of mice [1, 7]: 12.5%
NAS: Improving 1-pt, % of mice [1, 8]: 20%
NAS: Improving Total (≥1-pt), % of mice [1, 8]: 27%
NAS: Improving ≥2-pt, % of mice [1, 8]: 7% and 6.7%
NAS: Worsening ≥1-pt, % of mice [1, 8]: 0%
Histological Steatosis Score: No change, % of mice [1, 9]: 68.75%
Liver Fibrosis stage: Improving, % of mice [1, 9]: 6.25%
Liver Fibrosis stage: No change, % of mice [1, 9]: 62.5%
Lobular Inflammation: Improving, % of mice [1, 9]: 6.25%
Lobular Inflammation: Worsening, % of mice [1, 9]: 25%
Steatosis Score: Improving 1-pt, % of mice [1, 9]: 25%
Steatosis Score: Improving Total, % of mice [1, 9]: 31%
Steatosis Score: Improving ≥2-pt, % of mice [1, 9]: 6.25%
Liver Fibrosis stage: No change, % of mice [1, 10]: 60%
Lobular Inflammation: Improving, % of mice [1, 10]: 6.7%
Lobular Inflammation: Worsening, % of mice [1, 10]: 20%
Steatosis Score: Improving 1-pt, % of mice [1, 10]: 40%
Steatosis Score: Improving Total, % of mice [1, 10]: 47%
Steatosis Score: Improving ≥2-pt, % of mice [1, 10]: 6.7%
α-SMA (IHC) ([1]; end of study, Compound 1-low and Compound 1-med (0.3 and 2 mg/kg)): Numeric reductions
ALT increase to ≥2×ULN [3]: No subject
free T4 [3]: Dose-dependent declines
safety and tolerability [3]: generally safe and well-tolerated
severity of AEs [3]: mild to moderate with no apparent dose relationship
plasma triglycerides (TG) ([4]; Compound 1-high, 10 mg/kg): significantly reduced
ALT levels relative to DIO-GAN vehicle control ([4]; single agent Compound 1 low, med, and high (0.3, 2, 10 mg/kg)): significantly lowered

SMILES: Cn1cc(C(=O)O)c2ccc(C3CCC(OCc4c(-c5c(Cl)cccc5Cl)noc4C4CC4)CC3)cc21 (centres unmarked) [Compound 2]
liver expression of Col1a1, Acta2, Lgals3 and CD146 relative to DIO-GAN vehicle control [6]: significantly reduced expression
liver expression of Scd1 [6]: reduced
Histological Steatosis Score: No change, % of mice [1, 11]: 18.75%
Liver Fibrosis stage: Improving, % of mice [1, 11]: 6.25%
Liver Fibrosis stage: No change, % of mice [1, 11]: 56.25%
Liver Fibrosis stage: Worsening, % of mice [1, 11]: 37.5%
Lobular Inflammation: Improving, % of mice [1, 11]: 0%
Lobular Inflammation: No change, % of mice [1, 11]: 68.75%
Lobular Inflammation: Worsening, % of mice [1, 11]: 31.25%
Steatosis Score: Improving 1-pt, % of mice [1, 11]: 81.25%
Steatosis Score: Improving Total, % of mice [1, 11]: 81% and 81.25%
Steatosis Score: Improving ≥2-pt, % of mice [1, 11]: 0%
NAFLD Activity Score (NAS): No change, % of mice [1, 12]: 43.7%
NAS: Improving 1-pt, % of mice [1, 12]: 56.25%
NAS: Improving Total (≥1-pt), % of mice [1, 12]: 56% and 56.25%
NAS: Improving ≥2-pt, % of mice [1, 12]: 0%
NAS: Worsening ≥1-pt, % of mice [1, 12]: 0%
α-SMA (IHC) ([1]; end of study, Compound 2 10 mg/kg, combinations per Table 16): Numeric reductions
Gal-3 expression in the liver (IHC) relative to DIO-GAN vehicle control ([1]; end of study, doses per Table 16): lower levels of Gal-3 expression
plasma triglycerides (TG) ([4]; Compound 2 10 mg/kg and combinations): significantly reduced
